{
  "source": "ChEMBL document CHEMBL1201862",
  "about": "“PubChem BioAssay data set” (2004)",
  "assay_in_all_cases": "NCI anticancer screen, dose series, 48 h",
  "key": {"BT-549": {"tested_on": "BT-549"}, "CCRF-CEM": {"tested_on": "CCRF-CEM"}, "NCI-H460": {"tested_on": "NCI-H460"}, "DU-145": {"tested_on": "DU-145"}, "MDA-MB-231": {"tested_on": "MDA-MB-231"}, "A549": {"tested_on": "A549"}, "SK-OV-3": {"tested_on": "SK-OV-3"}, "SNB-75": {"tested_on": "SNB-75"}, "NCI-H522": {"tested_on": "NCI-H522"}, "NCI-H226": {"tested_on": "NCI-H226"}, "RPMI-8226": {"tested_on": "RPMI-8226"}, "OVCAR-5": {"tested_on": "OVCAR-5"}, "SF-268": {"tested_on": "SF-268"}, "OVCAR-4": {"tested_on": "OVCAR-4"}, "786-0": {"tested_on": "786-0"}, "U-251": {"tested_on": "U-251"}, "IGROV-1": {"tested_on": "IGROV-1"}, "SN12C": {"tested_on": "SN12C"}, "SF-295": {"tested_on": "SF-295"}, "HL-60": {"tested_on": "HL-60"}, "SW-620": {"tested_on": "SW-620"}, "UO-31": {"tested_on": "UO-31"}, "UACC-257": {"tested_on": "UACC-257"}, "MDA-MB-435": {"tested_on": "MDA-MB-435"}, "OVCAR-3": {"tested_on": "OVCAR-3"}, "SK-MEL-28": {"tested_on": "SK-MEL-28"}, "HT-29": {"tested_on": "HT-29"}, "CAKI-1": {"tested_on": "CAKI-1"}, "MOLT-4": {"tested_on": "MOLT-4"}, "SR": {"tested_on": "SR"}, "COLO 205": {"tested_on": "COLO 205"}, "SNB-19": {"tested_on": "SNB-19"}, "UACC-62": {"tested_on": "UACC-62"}, "K562": {"tested_on": "K562"}, "TK-10": {"tested_on": "TK-10"}, "SF-539": {"tested_on": "SF-539"}, "LOX IMVI": {"tested_on": "LOX IMVI"}, "HCT-116": {"tested_on": "HCT-116"}, "NCI-H23": {"tested_on": "NCI-H23"}, "OVCAR-8": {"tested_on": "OVCAR-8"}, "Malme-3M": {"tested_on": "Malme-3M"}, "HOP-62": {"tested_on": "HOP-62"}, "SK-MEL-5": {"tested_on": "SK-MEL-5"}, "PC-3": {"tested_on": "PC-3"}, "M14": {"tested_on": "M14"}, "KM12": {"tested_on": "KM12"}, "HOP-92": {"tested_on": "HOP-92"}, "HCC 2998": {"tested_on": "HCC 2998"}, "HCT-15": {"tested_on": "HCT-15"}, "SK-MEL-2": {"tested_on": "SK-MEL-2"}, "NCI/ADR-RES": {"tested_on": "NCI/ADR-RES"}, "A498": {"tested_on": "A498"}, "Hs-578T": {"tested_on": "Hs-578T"}, "MDA-N": {"tested_on": "MDA-N"}, "EKVX": {"tested_on": "EKVX"}, "MCF7": {"tested_on": "MCF7"}, "ACHN": {"tested_on": "ACHN"}, "RXF 393": {"tested_on": "RXF 393"}, "T47D": {"tested_on": "T47D"}},
  "note": "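Five concentrations, 48 hours, 96-well plates. The concentration for 50% growth inhibition is given as GI50.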 Activity calls are given as the source filed them. No stated cut-off is given here; in the data, active = GI50 up to about 1.1 µM and inactive = higher.",
  "data": [
    {"smiles": "COC(C(=O)C(O)C(C)O)C1CC2C=C3C=C(OC4CC(OC5CC(O)C(OC)C(C)O5)C(OC(C)=O)C(C)O4)C(C)C(O)=C3C(O)=C2C(=O)C1OC1CC(OC2CC(OC3CC(C)(O)C(OC(=O)C(C)C)C(C)O3)C(O)C(C)O2)C(O)C(C)O1", "note": "(centres undefined)", "values": [
      {"measurement": "GI50", "setting": "BT-549", "result": "< 10 nM (active)"},
      {"measurement": "GI50", "setting": "CCRF-CEM", "result": "< 10 nM (active)"},
      {"measurement": "GI50", "setting": "NCI-H460", "result": "< 10 nM (active)"},
      {"measurement": "GI50", "setting": "DU-145", "result": "< 10 nM (active)"},
      {"measurement": "GI50", "setting": "MDA-MB-231", "result": "< 10 nM (active)"},
      {"measurement": "GI50", "setting": "A549", "result": "< 10 nM (active)"},
      {"measurement": "GI50", "setting": "SK-OV-3", "result": "< 10 nM (active)"},
      {"measurement": "GI50", "setting": "SNB-75", "result": "< 10 nM (active)"},
      {"measurement": "GI50", "setting": "NCI-H522", "result": "< 10 nM (active)"},
      {"measurement": "GI50", "setting": "NCI-H226", "result": "< 10 nM (active)"},
      {"measurement": "GI50", "setting": "RPMI-8226", "result": "< 10 nM (active)"},
      {"measurement": "GI50", "setting": "OVCAR-5", "result": "< 10 nM (active)"},
      {"measurement": "GI50", "setting": "SF-268", "result": "< 10 nM (active)"},
      {"measurement": "GI50", "setting": "OVCAR-4", "result": "< 10 nM (active)"},
      {"measurement": "GI50", "setting": "786-0", "result": "< 10 nM (active)"},
      {"measurement": "GI50", "setting": "U-251", "result": "< 10 nM (active)"},
      {"measurement": "GI50", "setting": "IGROV-1", "result": "< 10 nM (active)"},
      {"measurement": "GI50", "setting": "SN12C", "result": "< 10 nM (active)"},
      {"measurement": "GI50", "setting": "SF-295", "result": "< 10 nM (active)"},
      {"measurement": "GI50", "setting": "HL-60", "result": "< 10 nM (active)"},
      {"measurement": "GI50", "setting": "SW-620", "result": "< 10 nM (active)"},
      {"measurement": "GI50", "setting": "UO-31", "result": "< 10 nM (active)"},
      {"measurement": "GI50", "setting": "UACC-257", "result": "< 10 nM (active)"},
      {"measurement": "GI50", "setting": "MDA-MB-435", "result": "< 10 nM (active)"},
      {"measurement": "GI50", "setting": "OVCAR-3", "result": "< 10 nM (active)"},
      {"measurement": "GI50", "setting": "SK-MEL-28", "result": "< 10 nM (active)"},
      {"measurement": "GI50", "setting": "HT-29", "result": "< 10 nM (active)"},
      {"measurement": "GI50", "setting": "CAKI-1", "result": "< 10 nM (active)"},
      {"measurement": "GI50", "setting": "MOLT-4", "result": "< 10 nM (active)"},
      {"measurement": "GI50", "setting": "SR", "result": "< 10 nM (active)"},
      {"measurement": "GI50", "setting": "COLO 205", "result": "< 10 nM (active)"},
      {"measurement": "GI50", "setting": "SNB-19", "result": "< 10 nM (active)"},
      {"measurement": "GI50", "setting": "UACC-62", "result": "< 10 nM (active)"},
      {"measurement": "GI50", "setting": "K562", "result": "< 10 nM (active)"},
      {"measurement": "GI50", "setting": "TK-10", "result": "< 10 nM (active)"},
      {"measurement": "GI50", "setting": "SF-539", "result": "< 10 nM (active)"},
      {"measurement": "GI50", "setting": "LOX IMVI", "result": "< 10 nM (active)"},
      {"measurement": "GI50", "setting": "HCT-116", "result": "< 10 nM (active)"},
      {"measurement": "GI50", "setting": "NCI-H23", "result": "< 10 nM (active)"},
      {"measurement": "GI50", "setting": "OVCAR-8", "result": "< 10 nM (active)"},
      {"measurement": "GI50", "setting": "Malme-3M", "result": "< 10 nM (active)"},
      {"measurement": "GI50", "setting": "HOP-62", "result": "< 10 nM (active)"},
      {"measurement": "GI50", "setting": "SK-MEL-5", "result": "< 10 nM (active)"},
      {"measurement": "GI50", "setting": "PC-3", "result": "< 10 nM (active)"},
      {"measurement": "GI50", "setting": "M14", "result": "< 10 nM (active)"},
      {"measurement": "GI50", "setting": "KM12", "result": "< 10 nM (active)"},
      {"measurement": "GI50", "setting": "HOP-92", "result": "< 10 nM (active)"},
      {"measurement": "GI50", "setting": "HCC 2998", "result": "< 10 nM (active)"},
      {"measurement": "GI50", "setting": "HCT-15", "result": "< 10", "unit": "nM"},
      {"measurement": "GI50", "setting": "SK-MEL-2", "result": "< 10 nM (active)"},
      {"measurement": "GI50", "setting": "NCI/ADR-RES", "result": "< 10 nM (active)"},
      {"measurement": "GI50", "setting": "A498", "result": "< 10 nM (active)"},
      {"measurement": "GI50", "setting": "Hs-578T", "result": "< 10 nM (active)"},
      {"measurement": "GI50", "setting": "MDA-N", "result": "< 10 nM (active)"},
      {"measurement": "GI50", "setting": "EKVX", "result": "< 10 nM (active)"},
      {"measurement": "GI50", "setting": "MCF7", "result": "< 10 nM (active)"},
      {"measurement": "GI50", "setting": "ACHN", "result": "< 10 nM (active)"},
      {"measurement": "GI50", "setting": "RXF 393", "result": "< 10 nM (active)"},
      {"measurement": "GI50", "setting": "T47D", "result": "< 10 nM (active)"}
    ]}
  ]
}
